Laboratory results published in patent US20230340607A1, “COMPOSITIONS AND METHODS FOR DETECTING GENE FUSIONS OF RAD51AP1 AND DYRK4 AND FOR DIAGNOSING AND TREATING CANCER” (UNIVERSITY OF PITTSBURGH-OF THE COMMONWEALTH SYSTEM OF …, priority 2020, published 2023).
Entries after “also recorded” stand apart in the source; their conditions may differ.

Experiments:
Assay type in all cases: cell-based, human
[1] = tested on: T47D cells inducibly expressing RAD51AP1-DYRK4 (E9-E2); test: Clonogenic assay, T47D cells inducibly expressing RAD51AP1-DYRK4 (E9-E2)
Experimental: (§1) Next, the sensitivity of the engineered T47D cells inducibly expressing RAD51AP1-DYRK4 or wtRAD51AP1 to MEK inhibition was assessed. The first FDA approved MEK inhibitor currently under phase II clinical trial for triple negative breast cancer (NCI 9455) called Trametinib was used for MEK inhibition. MEK inhibition requires longer term drug exposure to exert therapeutic effect (Xue, Z. et al. (2018)). Therefore, clonogenic assays on the T47D models were performed to assess the cell viability following trametinib treatment in the presence or absence of doxycycline induction. Since T47D cells express EGFR, the cells were also treated with lapatinib to observe the combinatory effect.
(§2) Clonogenic assay. The E9-E2 and wtRAD51AP1 expressing T47D cells were seeded at a density of 1000 cells/well in a 6-well plate with or without 200 ng/ml doxycycline treatment and incubated for 14-21 days. The colonies were stained with 0.5% crystal violet in 50% ethanol and counted using GelCount (Oxford Optronix Ltd.). The Trametinib (MEKi) and Lapatinib (EGFR/HER2 inhibitor) used for in vitro therapeutic studies were purchased from Selleck Chemicals. To test their therapeutic effects in the engineered T47D cells and other cell lines, cells (5000-10000, depending on the doubling time) were plated in 24-well for 24 hours prior to treatment with growth media containing trametinib, lapatinib or DMSO was replaced every 4 days for approximately 2 weeks. After this, cells were stained with 0.5% crystal violet in water containing 50% ethanol for 15 minutes at room temperature. The area and intensity of each well was measured using Image J. with Colony Area Plug In.

MDAMB361 cells = test: Clonogenic assay, MDAMB361 cells
Experimental: (§3) Since MDAMB361 is a HER2 positive cell line we also assessed the therapeutic effect of lapatinib treatment alone or in combination with trametinib.
as §2

[2] = tested on: HER2/PI3K/AKT/Raptor activation; test: Western blot of engineered T47D cells after trametinib: HER2/PI3K/AKT/Raptor; settings: 0.5uM trametinib, 24 hours
Experimental: (§4) Compensative HER2/PI3K/AKT and MAP3K1/JNK/JUN activation has been reported to mediate resistance to MEK inhibitors (Avivar-Valderas, A. et al. (2018); Maher, C.A. et al. (2009)). We thus examined if RAD51AP1-DYRK4 and wtRAD51AP1 differentially modulate these survival pathways following MEK inhibition. To test this, we treated the engineered T47D cells with 0.5uM of trametinib or vehicle for 24 hours, to assess the early signaling changes following trametinib treatment. […] In contrast, this compensatory signaling was activated in T47D cells overexpressing wtRAD51AP1 following MEK inhibition (FIG. 7A). In addition, RAD51AP1-DYRK4 also repressed MAP3K1 protein level and JNK-JUN phosphorylation under MEK inhibition.
(§5) Western blot. For immunoblot analysis, E9-E2 and wtRAD51AP1 expression was induced in transduced T47D cells with 200 ng/ml doxycycline for one week. Total proteins were extracted by homogenizing the cells in RIPA Lysis Buffer (Sigma-Aldrich), supplemented with complete protease inhibitor cocktail tablet (Roche Diagnostics), 50 mM beta-Glycerophosphate, 1 mM sodium orthovanadate, 1 mM sodium fluoride, and 1 mM PMSF. Thirty micrograms of protein extracts were denatured in sample buffer, separated by SDS-PAGE, and transferred onto a nitrocellulose membrane (Invitrogen). The membranes were blocked and incubated overnight at 4° C. with primary antibodies. […]

[3] = tested on: MAP3K1 protein level and JNK-JUN phosphorylation; test: Western blot of engineered T47D cells after trametinib: MAP3K1/JNK/JUN; settings: 0.5uM trametinib, 24 hours
Experimental: as §4, §5

[4] = tested on: T47D cells inducibly expressing wtRAD51AP1; test: Clonogenic assay, T47D cells inducibly expressing wtRAD51AP1; settings: induction of wtRAD51AP1 expression
Experimental: as §1
Clonogenic assay. The E9-E2 and wtRAD51AP1 expressing T47D cells were seeded at a density of 1000 cells/well in a 6-well plate with or without 200 ng/ml doxycycline treatment and incubated for 14-21 days. The colonies were stained with 0.5% crystal violet in 50% ethanol and counted using GelCount (Oxford Optronix Ltd.). The Trametinib (MEKi) and Lapatinib (EGFR/HER2 inhibitor) used for in vitro therapeutic studies were purchased from Selleck Chemicals. […] The area and intensity of each well was measured using Image J. with Colony Area Plug In.

HCC1937 cells = test: Clonogenic assay, HCC1937 cells; settings: HCC1937 overexpressing RAD51AP1-DYRK4, compared to MCF7, HCC38, HCC1428, and ZR-75-30 cell lines
Experimental: as §3, §2

[5] = T47D cells overexpressing RAD51AP1-DYRK4

Structure (SMILES) | therapeutic benefit of lapatinib alone (clonogenic assay) ([1]; engineered T47D cells) | therapeutic benefit of lapatinib in combination with trametinib (clonogenic assay) ([1]; engineered T47D cells, combination with trametinib) | therapeutic effect of lapatinib alone (clonogenic assay) (MDAMB361 cells; MDAMB361, HER2 positive) | therapeutic effect of lapatinib in combination with trametinib (clonogenic assay) (MDAMB361 cells; MDAMB361, combination with trametinib) | sensitivity to trametinib (clonogenic assay, cell viability) ([1]; T47D cells, doxycycline-induced ectopic RAD51AP1-DYRK4 (E9-E2) expression vs absence of induction) | HER2/PI3K/AKT/Raptor activation under MEK inhibition (Western blot) [2, 5] | compensatory HER2/PI3K/AKT/Raptor signaling following MEK inhibition (Western blot) ([2]; T47D cells overexpressing wtRAD51AP1) | MAP3K1/JNK/JUN signaling following MEK inhibition (Western blot) ([3]; T47D cells ectopically expressing wtRAD51AP1) | MAP3K1 protein level and JNK-JUN phosphorylation under MEK inhibition (Western blot) [3, 5] | sensitivity to trametinib treatment (clonogenic assay) (MDAMB361 cells; MDAMB361 overexpressing RAD51AP1-DYRK4, compared to MCF7, HCC38, HCC1428, and ZR-75-30 cell lines) | increased sensitivity to trametinib (clonogenic assay, cell viability) [4] | increased sensitivity to trametinib (clonogenic assay, cell viability) ([4]; listed as Trametinib) | sensitivity to trametinib treatment (clonogenic assay) (HCC1937 cells)
CS(=O)(=O)CCNCc1ccc(-c2ccc3ncnc(Nc4ccc(OCc5cccc(F)c5)c(Cl)c4)c3c2)o1 [lapatinib, Lapatinib] | did not result in additional therapeutic benefits; also recorded: did not show additional therapeutic benefits | did not result in additional therapeutic benefits; also recorded: did not show additional therapeutic benefits | highly resistant; also recorded: resistance | highly sensitive | – | – | – | – | – | – | – | – | –
CC(=O)Nc1cccc(-n2c(=O)n(C3CC3)c(=O)c3c(Nc4ccc(I)cc4F)n(C)c(=O)c(C)c32)c1 [trametinib] | – | – | – | – | significantly increased sensitivity | attenuates | activated; also recorded: compensatory activation | did not observe activation | repressed | markedly higher sensitivity | not observed | not | markedly higher sensitivity
